Assay results as given in patent US8309768B2, “FTY720-derived anticancer agents” (The Ohio State University Research Foundation, priority 2010, dated 2012).

What was measured:
human recombinant SphK2 = target: T1, human recombinant SphK2 (Homo sapiens, UniProt Q9NRA0); assay: Phosphorylation of FTY720 and OSU-2S by SphK2 (radiometric, TLC); type: biochemical; conditions: 5 μM compound, [γ-32P]-ATP, 37° C., 60 min, TLC/autoradiography
T1 construct: purchased Cayman
T1 sequence (Q9NRA0 1-654): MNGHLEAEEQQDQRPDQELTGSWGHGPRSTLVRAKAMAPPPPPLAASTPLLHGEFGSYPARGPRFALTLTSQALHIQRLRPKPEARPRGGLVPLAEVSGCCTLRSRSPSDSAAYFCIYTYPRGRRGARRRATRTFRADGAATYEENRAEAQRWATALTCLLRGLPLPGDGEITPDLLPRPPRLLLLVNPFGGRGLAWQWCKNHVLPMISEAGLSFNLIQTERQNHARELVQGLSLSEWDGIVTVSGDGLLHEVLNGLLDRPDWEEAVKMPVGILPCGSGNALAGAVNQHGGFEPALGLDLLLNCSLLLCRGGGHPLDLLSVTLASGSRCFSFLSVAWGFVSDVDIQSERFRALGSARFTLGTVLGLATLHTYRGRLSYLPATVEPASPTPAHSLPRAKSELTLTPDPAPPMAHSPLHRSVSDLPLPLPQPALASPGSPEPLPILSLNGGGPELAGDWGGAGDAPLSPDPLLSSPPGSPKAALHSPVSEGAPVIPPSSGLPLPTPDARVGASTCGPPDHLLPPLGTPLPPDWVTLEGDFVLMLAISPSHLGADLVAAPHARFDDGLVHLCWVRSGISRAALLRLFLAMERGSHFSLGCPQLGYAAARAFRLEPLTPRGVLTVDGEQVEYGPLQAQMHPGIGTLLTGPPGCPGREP
Procedure: Phosphorylation of FTY720 and OSU-2S by SphK2. Analysis of SphK2-mediated phosphorylation was performed as reported with modifications. Prieschl […] J Exp Med, 190, 1-8 (1999). Briefly, 5 μM FTY720 or OSU-2S was incubated with 0.75 μg/ml human recombinant SphK2 (Cayman), 5 μCi [γ-^32P]-ATP, and 0.5 mM cold ATP at 37° C. for 60 min. The reaction products were separated by silica-gel thin layer chromatography (TLC) and visualized by autoradiography.

[1] = target: T2, S1P1 receptor-overexpressing Huh7 cells (Homo sapiens, UniProt P21453); assay: Immunocytochemical analysis of S1P1 receptor internalization; type: cell-based; conditions: immunocytochemistry
T2 construct: expressed in transfected cells
T2 sequence (P21453 whole entry): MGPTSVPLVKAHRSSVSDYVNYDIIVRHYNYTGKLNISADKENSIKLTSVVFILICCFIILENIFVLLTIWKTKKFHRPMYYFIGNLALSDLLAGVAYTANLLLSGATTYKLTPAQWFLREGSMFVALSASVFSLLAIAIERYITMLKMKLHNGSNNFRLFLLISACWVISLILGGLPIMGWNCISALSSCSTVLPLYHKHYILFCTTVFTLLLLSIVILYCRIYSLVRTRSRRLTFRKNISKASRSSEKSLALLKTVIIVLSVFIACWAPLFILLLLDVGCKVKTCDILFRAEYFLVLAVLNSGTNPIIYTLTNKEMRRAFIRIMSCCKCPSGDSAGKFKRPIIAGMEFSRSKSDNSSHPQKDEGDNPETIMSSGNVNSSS
Procedure: Immunocytochemistry. Immunocytochemical analysis of S1P1 internalization and PKCδ nuclear translocation were performed as described. […] Briefly, treated cells were washed, fixed with 4% paraformaldehyde, and permeabilized with 0.1% Triton X-100. After blocking with 2% FBS, cells were incubated with rabbit anti-S1P1 or rabbit anti-PKCδ antibodies (1:200 dilution, 4° C., 24 h), followed by Alexa Fluor 488-conjugated goat anti-rabbit IgG (room temperature, 1 h). Nuclei were counterstained with a 4,6-diamidino-2-phenylindole (DAPI)-containing mounting medium (Vector Laboratories, Burlingame, Calif.).

Huh7 cells = assay: MTT cell viability assay, Huh7; type: cell-based; conditions: Homo sapiens, Huh-7, 24 h of treatment, MTT
Procedure: (§1) Cell lines, culture and reagents. The HCC cell lines Hep3B, PLC5 and Huh7, as well as primary nonmalignant human hepatocytes were used in this study. Cancer cells were cultured in Dulbecco's Modified Eagle's medium (DMEM) supplemented with 10% fetal bovine serum (FBS). Hepatocytes were maintained in defined Hepatocyte Culture Medium. […] Various polyclonal and monoclonal antibodies were used for western blotting, immunocytochemical, and flow cytometric analyses.
(§2) Cell viability assay. Cell viability was assessed by 3-(4,5-dimethylthiazol-2-yl)-2,5-diphenyl-2H-tetrazolium bromide (MTT) assays in six replicates. Cells were seeded (4,000 cells/well; 96-well plate) for 24 h and treated with test agents in 5% FBS-supplemented DMEM. After treatment, cells were incubated in medium containing 0.5 mg/ml MTT (37° C., 2 h). Reduced MTT was dissolved in DMSO (200 μL/well) and absorbances measured at 570 nm.

normal human hepatocytes = assay: MTT cell viability assay, normal hepatocytes; type: cell-based; conditions: 24 h
Procedure: as §1, §2

[2] = test system: Hep3B, Huh7, and PLC5 cells; assay: ROS production by flow cytometry with DCFDA; type: cell-based; conditions: 1 h of treatment
Procedure: Flow cytometry. For assessment of apoptosis, treated cells were stained with Annexin V-Alexa Fluor 488 and propidium iodide according to the vendor's protocols (Molecular Probes). For caspase-3 activity, cells were incubated with the fluorogenic caspase-3 substrate (Ac-DMQD)-2-Rh110 for 20 min. ROS production was detected using the fluorescence probe 5-(and-6)-carboxy-2′,7′-dichlorodihydrofluorescein diacetate (DCFDA) as described. Hung et al., Cancer Res., 68, 1204-1212 (2008). Data were analyzed by ModFitLT V3.0 software program.

[3] = test system: orthotopic Hep3B-luc tumors; assay: Orthotopic Hep3B-luc xenograft tumor model; type: in vivo, athymic nude mice; design: dose or concentration left out as unconfirmed; conditions: end of treatment (42 days)
Text: Orthotopic tumors were established by direct intrahepatic injection of luciferase-expressing Hep3B (Hep3B-luc) cells as described. Omar et al., Mol Pharmacol, 76, 957-968 (2009). The establishment and growth of tumors were monitored by bioluminescent imaging using the IVIS™ imaging system (Xenogen, Alameda, Calif.). […] All animal use described in this manuscript was done in accordance with protocols approved by The Ohio State University Institutional Animal Care and Use Committee.

[4] = Toxicity evaluation in tumor-bearing mice (body weight, blood counts, histopathology); type: in vivo, athymic nude mice; conditions: for mice with abdominal adhesions with varying amounts of peritonitis: of six mice per group examined histologically
Procedure: Xenograft tumor models. Ectopic tumors were established in athymic nude mice by subcutaneous injection of 1×10^6 Hep3B cells in a total volume of 0.1 ml of serum-free medium containing 50% Matrigel. Mice with established tumors were randomized to five groups (n=8) that received daily i.p. injections of OSU-2S or FTY720 at 5 or 10 mg/kg, or the vehicle. Tumor burdens were determined weekly using calipers (volume=width^2×length×0.52). Body weights were measured weekly. At the study endpoint, tumors were harvested, snap-frozen and stored at −80° C. for biomarker analysis. Blood and tissues were collected for evaluation of complete blood counts, serum chemistry and histopathology.
Orthotopic tumors were established by direct intrahepatic injection of luciferase-expressing Hep3B (Hep3B-luc) cells as described. Omar et al., Mol Pharmacol, 76, 957-968 (2009). The establishment and growth of tumors were monitored by bioluminescent imaging using the IVIS™ imaging system (Xenogen, Alameda, Calif.). Two weeks after tumor cell injection, animals with established tumors were randomized to three groups (n=3) that received daily i.p. injections of FTY720 or OSU-2S at 5 mg/kg, or vehicle for 42 days and were imaged weekly. All animal use described in this manuscript was done in accordance with protocols approved by The Ohio State University Institutional Animal Care and Use Committee.

CLL cells = assay: ROS induction in CLL cells (dihydroethidium staining); type: cell-based; conditions: 8 μM, untreated about 40%
Procedure: The induction of Reactive Oxygen Species (ROS) in CLL cells by OSU-2S was detected by staining OSU-2S 8 μM treated CLL cells with dihyroethidium. The ROS in the cells oxidizes DHE to ethidium staining the nucleus with a bright red fluorescence detected by flow cytometer. A hydrogen peroxide solution was used as a control.

Structure (SMILES): CCC[C@@](N)(CO)CCc1ccc(OCCCCCC(C)C)cc1 [OSU-2S, (S)-2-amino-2-(4-[(6-methylheptyl)-oxy]phenethyl)pentan-1-ol]
- phosphorylation by recombinant SphK2 (human recombinant SphK2): not phosphorylated
- S1P1 receptor internalization and clustering in the cytoplasm [1]: failed to show any appreciable effect
- IC50 (Huh7 cells): 2400 nM
- sensitivity of normal human hepatocytes relative to malignant cells (normal human hepatocytes): resistant
- ROS production [2]: to a greater extent than FTY720
- reduction in bioluminescent intensity [3]: 80%
- mice with abdominal adhesions with varying amounts of peritonitis ([4]; 5 mg/kg): all
- mice with abdominal adhesions with varying amounts of peritonitis ([4]; 10 mg/kg): all
- lymphocyte levels ([4]; ectopic tumor-bearing mice at study endpoint): normal
- overt toxicity and body weight ([4]; ectopic tumor-bearing mice, daily i.p. 5 or 10 mg/kg): no overt signs of toxicity and no loss of body weight
- total lymphocyte counts ([4]; mice after 42 days of treatment): no decrease
- tolerability (stable body weights) ([4]; orthotopic tumor-bearing mice, daily i.p., 42 days): well tolerated
- DHE positive cell % (CLL cells): about 70%
